Reference: patent publication US20250163072A1, “MACROCYCLIC COMPOUNDS FOR THE TREATMENT OF CANCER” (Hoffmann-La Roche Inc., priority 2021, published 2025)

How the values were obtained:
KRAS G12C-BRAF complex [1] = biological target: T1, KRAS G12C-BRAF complex (Homo sapiens (Human), UniProt P01116+P62937, G12C); test: KRAS G12C-BRAF NanoBit assay; type: cell-based; details: HEK293 cells, SmBit-KRAS G12C and BRAF RBD-LgBit, 3 hours incubation
Procedure: This assay is to measure the ability of tested compounds in disruption of the KRAS G12C-BRAF complex at the cellular level, we established the NanoBit cellular assay in mammalian HEK293 (ATCC) cells. HEK293 cells were grown and maintained using DMEM medium (Thermo Fisher Scientific) with 10% fetal bovine serum and 1% penicillin/streptomycin. Both KRAS G12C and BRAF RBD were cloned into the NanoBit vectors ([…] vectors system, Promega) with the orientations SmBit-KRAS G12C and BRAF RBD-LgBit, respectively, and co-transfected into HEK293 cells. Cells were then selected with 100 μg/mL Hygromycin B (10687010, Thermo Fisher) and Blasticidin (5 μg/mL) for 4 weeks to get the stable cell pool. On the day of the assay, 75 nL of compound solution was presented in a 384-well assay plate as a 16-point 3-fold dilution starting from a final concentration of 30 μM in DMSO. Then cells were seeded at 10,000 cells/25 μL/well in a 384-well plate. After 3 hours of incubation, 6 μL of volume of Nano-Glo® Live Cell Substrate (Promega) was added into each well. Monitor luminescence using ultra384 model in Envision at 20 minutes. Compounds that facilitate disruption of the KRAS G12C-BRAF RBD complex were identified as those eliciting a decrease of luminescence relative to DMSO control wells.

KRAS G12C-BRAF complex [2] = biological target: T1, KRAS G12C-BRAF complex; test: KRAS-BRAF with CYPA (50 nM) interaction assay (TR-FRET), G12C; type: binding; details: GMPPNP loaded 6His-KRAS, GST-BRAF RBD
Procedure, shortened: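 Buffer 25 mM HEPES pH 7.4, 100 mM NaCl, 5 mM MgCl2, 10 μM GMPPNP, 0.1% BSA; final 50 nM tagless CYPA, 6.25 nM GMPPNP-loaded 6His-KRAS mutant, 1 nM GST-BRAF RBD. Compounds 16-point 3-fold series from 10 μM, 3 h; anti-6His-XL665/anti-GST-Tb added, 1.5 h; 665/615 nm ratio decrease versus DMSO.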

[3] = test system: KRAS G12C in NCI-H358 cells; test: pERK inhibition assay, NCI-H358; type: cell-based, human; details: Homo sapiens, 4 hours incubation
Procedure, shortened: (§1)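 NCI-H358, AGS and SW620 cells in RPMI-1640/10% FBS were plated overnight, then exposed to compound (0.5% DMSO final) for 4 h. After fixation and permeabilization, phospho-ERK was quantified by in-cell ELISA (HRP secondary, TMB, OD450); IC50 from a 4-parameter sigmoidal fit.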

KRAS G12D in AGS cells = test: pERK inhibition assay, AGS; type: cell-based, human; details: Homo sapiens, 4 hours incubation
Procedure, shortened: as §1

[4] = Human hepatocytes stability assay; type: in vitro ADME
Procedure, shortened: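 Compound at 1 μM incubated with cryopreserved suspension hepatocytes (1×10^6 cells/mL) in supplemented Williams' E Medium at 37° C, 5% CO2, with shaking. Reactions quenched with methanol at 2, 10, 20, 40, 60 and 120 min; parent depletion followed by LC-MS/MS.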

T1 sequence (P01116-2 other isoform, or with tags, fused parts or gaps G12C): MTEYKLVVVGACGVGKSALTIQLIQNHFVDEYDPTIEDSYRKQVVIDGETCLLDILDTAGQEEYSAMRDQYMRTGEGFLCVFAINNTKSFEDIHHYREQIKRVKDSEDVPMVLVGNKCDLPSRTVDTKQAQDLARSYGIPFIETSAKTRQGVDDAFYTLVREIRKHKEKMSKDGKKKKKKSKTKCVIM
T1 sequence (P62937 whole entry): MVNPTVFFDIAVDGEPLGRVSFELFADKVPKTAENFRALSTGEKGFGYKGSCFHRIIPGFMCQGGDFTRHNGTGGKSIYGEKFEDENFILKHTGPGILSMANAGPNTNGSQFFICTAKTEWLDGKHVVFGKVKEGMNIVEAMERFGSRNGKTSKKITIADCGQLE

Structure (SMILES): CO[C@@H](C)c1ncc(N2CCOCC2)cc1-c1c2c3cc(ccc3n1CC(F)(F)F)-c1csc(n1)C[C@H](NC(=O)[C@H](C(C)C)N(C)C(=O)[C@H]1CCN(C(=O)[C@H](F)Cl)C1)C(=O)N1CCC[C@H](N1)C(=O)OCC(C)(C)C2 (atropisomer, axis not shown; (M)) [Example 25, (3S)-1-[(2R)-2-chloro-2-fluoro-acetyl]-N-[(1S)-1-[[(7S,13S)-(20M)-20-[2-[(1S)-1-methoxyethyl]-5-morpholino-3-pyridyl]-17,17-dimethyl-8,14-dioxo-21-(2,2,2-trifluoroethyl)-15-oxa-4-thia-9,21,27,28-tetrazapentacyclo[17.5.2.12,5.19,13.022,26]octacosa-1(25),2,5(28),19,22(26),23-hexaen-7-yl]carbamoyl]-2-methyl-propyl]-N-methyl-pyrrolidine-3-carboxamide]
- IC50 (KRAS G12C-BRAF complex [1]): 20 nM
- IC50 (KRAS G12C-BRAF complex [2]): 32 nM
- IC50 [3]: 1 nM
- IC50 (KRAS G12D in AGS cells): 13 nM
- CL_hep (Human) ([4]; 1 μM compound, human hepatocytes 1×10^6 cells/mL): 9.8 mL/min/kg
- Clearance Category ([4]; human hepatocytes): medium (16.24<CL_hep (mL/min/kg)>6.96 is medium clearance)
